The source of these data is paper PMC6009892, “A novel series of pyrazole-platinum(II) complexes as potential anti-cancer agents that induce cell cycle arrest and apoptosis in breast cancer cells” (Journal of Enzyme Inhibition and Medicinal Chemistry, 2018).

Where two headings read alike, the source gives them in different places.

Type in all cases: cell-based, human
Test [1] has as its system MDA-MB-231 breast cancer cells. The experiment in a line: MTT cell viability assay, MDA-MB-231. As to the method: (§1) MCF-7, MDA-MB-231 (both human breast cancer cell lines), and fibroblast cells were obtained from American Type Culture Collection (ATCC, Manassas, VA, USA). DMEM and FBS used in a cell culture were from Gibco (USA). Glutamine, penicillin, and streptomycin were obtained from Quality Biologicals Inc. (USA). DMEM media was blended with 50 units/ml of penicillin, 50 μg/ml of streptomycin, 10% of FBS. All cell lines were cultured in 5% CO2 and fully humidified at 37 °C. Cells were cultured in Costar flasks and sub-confluent cells were detached with 0.05% trypsin and 0.02% ethylenediaminetetraacetic acid in calcium-free phosphate-buffered saline (PBS), counted in hemocytometers, and plated at 5 × 10^5 cells/well of six-well plates (Thermo Scientific, New York, NY, USA) in 2 ml of growth medium (DMEM without phenol red with 10% CPSR1). Cells reached about 80% of confluency at day 2, and in most cases such cells were used for the assays.
(§2) The viability of cultured cells was decided through assaying the reduction of MTT to formazan. In brief, MCF-7, MDA-MB-231, and fibroblast cells line were seeded at an initial density of 1 × 10^5 cells per well. Then, the cells were incubated at 37 °C for 24 h. Subsequently, cultured cells were treated with a medium containing concentrations (5, 10, 20, 30, 40, and 50 μM) of PtPz1–PtPz6 for 24 h and 48 h. After the incubation period, MTT was added into all wells in the final concentration of 0.5 mg/ml. After that, the cells were incubated at 37 °C for 4 h. Then, by removing the medium, 200 μl of DMSO was added to all wells. As a result, insoluble formazan was dissolved in DMSO (0.5%). At 570 nm (630 nm as a reference), the absorbance was measured in an Evolution 201 reader (Thermo Scientific, Waltham, MA).

For another test, the system named is fibroblast cells. Briefly: MTT cell viability assay, fibroblasts. As to the method:
as §1, §2
For orientation: Formazan colour is commonly taken as a measure of viable cells.

Test [2] relates to MDA-MB-231 breast cancer cells. The experiment in a line: DNA fragmentation TUNEL assay, MDA-MB-231. The conditions noted are these: MDA-MB-231, 20 μM, 24 h. As to the method:
DNA fragmentation associated with apoptosis was examined by the terminal deoxynucleotidyltransferase (TdT)- mediated dUTP nick end labeling (TUNEL) method using a commercial assay kit (APO-Direct Kit; BD Pharmingen, San Diego, CA). After treatment, the cells were fixed with 1% paraformaldehyde in PBS (4°C, 30 min), washed in PBS, and permeabilised with ice-cold 70% ethanol. The APO-Direct Kit TUNEL assay was performed as described by the manufacturer. Briefly, the fixed cells were washed twice using the kit wash buffer, and after centrifugation the supernatant was discarded. The DNA labeling solution (containing TdT enzyme and FITC-dUTP) was added to the cell pellet, and the re-suspended mixture was incubated for 1 h at 37°C with occasional shaking. At the end of incubation time, rinse buffer was added, and after centrifugation the supernatant was discarded. We repeated the cell rinsing with rinse buffer, and then suspended the cell pellet in PI/RNase staining buffer. Cells were incubated at room temperature for 30 min and immediately analysed in a BD FACSCanto II flow cytometer. In total, 10,000 events were collected per test sample. The results were analysed with FACSDiva software (both from BD Biosciences Systems, San Jose, CA). The percentage of cells with distinctive apoptotic DNA strand breaks and distinguished by green fluorescent emission was calculated.

Test [3] deals with caspase-3 in MDA-MB-231 breast cancer cells. Briefly: FLICA caspase-3 activity, flow cytometry, MDA-MB-231. As to conditions: MDA-MB-231, 20 μM, 24 h. As to the method:
(§3) Caspase-3 activity was measured using the FLICA Caspase 3 Assay Kit (ImmunoChemistry Technologies, Bloomington, MN, USA), according to the manufacturer’s instructions. Briefly, cultured MDA-MB-231 breast cancer cells (1 × 10^6) were washed with cold PBS twice and re-suspended in buffer. We added 5 µl of diluted FLICA reagent and 2 µl of Hoechst 33342 to 93 µl of cell suspension and mixed by pipetting. The cells were incubated for 60 min at 37°C. After incubation, the cells were washed twice in 400 µl of apoptosis wash buffer and centrifuged at 300 × g. After the last wash, we re-suspended the cells in 100 µl of apoptosis wash buffer supplemented with 10 µg/ml PI. Analysis was performed using the BD FACSCanto II flow cytometer, and the results were analysed with FACSDiva software (both from BD Biosciences Systems, San Jose, CA).
Background: A flow cytometer gives signals particle by particle.

Test [4] concerns caspase-8 in MCF-7 breast cancer cells. Briefly: FLICA caspase-8 activity, flow cytometry, MCF-7. The conditions noted are these: MCF-7, 20 μM, 24 h. The protocol:
as §3, with “Caspase-8 activity” for “Caspase-3 activity”, “Caspase 8” for “Caspase 3”, “cultured MCF-7 and” for “cultured”

Test [5] concerns caspase-8 in MDA-MB-231 breast cancer cells. Briefly: FLICA caspase-8 activity, flow cytometry, MDA-MB-231. The conditions noted are these: MDA-MB-231, 20 μM, 24 h. The protocol: as §3, with “Caspase-8 activity” for “Caspase-3 activity”, “Caspase 8” for “Caspase 3”, “cultured MCF-7 and” for “cultured”
For test [6], the system named is caspase-9 in MCF-7 breast cancer cells. Briefly: FLICA caspase-9 activity, flow cytometry, MCF-7. The conditions noted are these: MCF-7, 20 μM, 24 h. As to the method:
as §3, with “Caspase-9 activity” for “Caspase-3 activity”, “Caspase 9” for “Caspase 3”, “cultured MCF-7 and” for “cultured”, “re-suspended” for “re-suspended the”

Test [7] concerns caspase-9 in MDA-MB-231 breast cancer cells. The experiment in a line: FLICA caspase-9 activity, flow cytometry, MDA-MB-231. The conditions noted are these: MDA-MB-231, 20 μM, 24 h. As to the method: as §3, with “Caspase-9 activity” for “Caspase-3 activity”, “Caspase 9” for “Caspase 3”, “cultured MCF-7 and” for “cultured”, “re-suspended” for “re-suspended the”

With `N.N.[Cl][Pt][Cl]` [cisplatin, reference compound], the IC50 in test [1] (MDA-MB-231, 24 h incubation, 5-50 μM, read-out: IC50 (cell viability, MTT)) was above 50 µM; in test [1] (MDA-MB-231, 48 h incubation, 5-50 μM, read-out: IC50 (cell viability, MTT)), above 50 µM; in test [1] (read-out: IC50 (additional test for cisplatin), MDA-MB-231, 24 h, additional test in concentrations allowing to determine IC50), 82 ± 2 µM; in test [1] (read-out: IC50 (additional test for cisplatin), MDA-MB-231, 48 h, additional test in concentrations allowing to determine IC50), 72 ± 1 µM; in the test with fibroblast cells (48 h incubation, 5-50 μM, read-out: IC50 (cell viability, MTT)) it was above 50 µM; in the test with fibroblast cells (read-out: IC50 (additional test for cisplatin), 24 h, additional test in concentrations allowing to determine IC50) it was above 100 µM. In addition, the IC50 in the test on fibroblast cells (read-out: IC50 (additional test for cisplatin), 48 h, additional test in concentrations allowing to determine IC50) is above 100 µM. Besides, the “percent of TUNEL positive cells” value in test [2] came out at 8.9%. In addition, the “percent of cells with active caspase-3” value in test [3] was determined as 6.4%. For the same molecule, the “percent of cells with active caspase-8” value was 7.1% in test [4] and 9.7% in test [5]. For the same molecule, the “percent of cells with active caspase-9” value was found to be 8.2% in test [6] and 7.3% in test [7].
